These results are taken from patent US20050272700A1, “Topical treatment and prevention of human papilloma virus (HPV) infection” (priority 2004, published 2005).

Data set [1] deals with DMBA-induced mammary tumors. The conditions noted are these: Wattenberg and Loub 1978; cited from earlier work.
Data set [2] is described as follows: Stability testing of I3C solutions and formulations by HPLC. Type of data set: physicochemical. The note with it: for amount of the active remaining: aqueous medium, 5° C.; for loss of potency: 2 weeks. How it is done: Stability testing of the formulations was performed by HPLC analysis. The area of the peak representing I3C or a derivative thereof was monitored.

For the compound `c1ccc2c(Cc3c[nH]c4ccccc34)c[nH]c2c1` [DIM, 3,3′-diindoylmethane], the “reduction of DMBA-induced mammary tumors” value in data set [1] was “somewhat effective”.
For the compound `OCc1c[nH]c2ccccc12` [Composition I3C, indole-3-carbinol], the “amount of the active remaining” value is given as “completely decomposed” in data set [2] (pH 6.0, 2 weeks) and “about 93%” in data set [2] (pH 8.0, 2 weeks). Also, the loss of potency in data set [2] (same aqueous composition at pH 7.4 without hydroxypropyl-β-cyclodextrin) was 16%; in data set [2] (solution at pH 7.4 with added hydroxypropyl-β-cyclodextrin), 1.3%.
